Laboratory results taken from the NIST ThermoML archive (doi:10.1021/je100832h).

What was measured:
[1] = excess molar enthalpy (molar enthalpy of mixing); xn = mol fraction of the nth substance listed; details: 101 kPa, Liquid, Calvet calorimetry
[2] = xn = mol fraction of the nth substance listed; details: 101.32 kPa, Liquid, Vibrating tube method

CCOC(C)=O [ethyl acetate] + CCCCCC
Details | excess molar enthalpy [kcal/mol] | mass density [kg/m3]
[1], 291.15 K, x1 = 0.0535 | 0.0674 | –
[1], 291.15 K, x1 = 0.1148 | 0.139 | –
[1], 291.15 K, x1 = 0.1974 | 0.215 | –
[1], 291.15 K, x1 = 0.2736 | 0.275 | –
[1], 291.15 K, x1 = 0.3368 | 0.309 | –
[1], 291.15 K, x1 = 0.3855 | 0.33 | –
[1], 291.15 K, x1 = 0.4401 | 0.344 | –
[1], 291.15 K, x1 = 0.4918 | 0.348 | –
[1], 291.15 K, x1 = 0.5333 | 0.345 | –
[1], 291.15 K, x1 = 0.5714 | 0.341 | –
[1], 291.15 K, x1 = 0.6212 | 0.329 | –
[1], 291.15 K, x1 = 0.6753 | 0.309 | –
[1], 291.15 K, x1 = 0.722 | 0.282 | –
[1], 291.15 K, x1 = 0.7805 | 0.247 | –
[1], 291.15 K, x1 = 0.8412 | 0.199 | –
[1], 291.15 K, x1 = 0.8816 | 0.153 | –
[1], 291.15 K, x1 = 0.9343 | 0.0937 | –
[1], 291.15 K, x1 = 0.9802 | 0.0349 | –
[1], 298.15 K, x1 = 0.0668 | 0.0865 | –
[1], 298.15 K, x1 = 0.1168 | 0.137 | –
[1], 298.15 K, x1 = 0.192 | 0.21 | –
[1], 298.15 K, x1 = 0.2621 | 0.261 | –
[1], 298.15 K, x1 = 0.3186 | 0.289 | –
[1], 298.15 K, x1 = 0.3929 | 0.319 | –
[1], 298.15 K, x1 = 0.439 | 0.329 | –
[1], 298.15 K, x1 = 0.495 | 0.326 | –
[1], 298.15 K, x1 = 0.5309 | 0.324 | –
[1], 298.15 K, x1 = 0.5767 | 0.315 | –
[1], 298.15 K, x1 = 0.6196 | 0.304 | –
[1], 298.15 K, x1 = 0.6757 | 0.286 | –
[1], 298.15 K, x1 = 0.7368 | 0.255 | –
[1], 298.15 K, x1 = 0.7954 | 0.215 | –
[1], 298.15 K, x1 = 0.8424 | 0.17 | –
[1], 298.15 K, x1 = 0.8998 | 0.117 | –
[1], 298.15 K, x1 = 0.9521 | 0.0605 | –
[1], 318.15 K, x1 = 0.076 | 0.11 | –
[1], 318.15 K, x1 = 0.1524 | 0.195 | –
[1], 318.15 K, x1 = 0.2306 | 0.259 | –
[1], 318.15 K, x1 = 0.3029 | 0.3 | –
[1], 318.15 K, x1 = 0.3659 | 0.325 | –
[1], 318.15 K, x1 = 0.4345 | 0.339 | –
[1], 318.15 K, x1 = 0.488 | 0.338 | –
[1], 318.15 K, x1 = 0.5143 | 0.335 | –
[1], 318.15 K, x1 = 0.5368 | 0.333 | –
[1], 318.15 K, x1 = 0.5617 | 0.331 | –
[1], 318.15 K, x1 = 0.6098 | 0.32 | –
[1], 318.15 K, x1 = 0.6645 | 0.301 | –
[1], 318.15 K, x1 = 0.7202 | 0.273 | –
[1], 318.15 K, x1 = 0.7788 | 0.235 | –
[1], 318.15 K, x1 = 0.8406 | 0.184 | –
[1], 318.15 K, x1 = 0.9004 | 0.125 | –
[1], 318.15 K, x1 = 0.9547 | 0.0638 | –
[2], 291.15 K, x1 = 0.0165 | – | 663.7
[2], 291.15 K, x1 = 0.0655 | – | 671.62
[2], 291.15 K, x1 = 0.1077 | – | 678.72
[2], 291.15 K, x1 = 0.1823 | – | 692.02
[2], 291.15 K, x1 = 0.1962 | – | 694.54
[2], 291.15 K, x1 = 0.2716 | – | 709.09
[2], 291.15 K, x1 = 0.3518 | – | 725.37
[2], 291.15 K, x1 = 0.4166 | – | 739.37
[2], 291.15 K, x1 = 0.5519 | – | 770.91
[2], 291.15 K, x1 = 0.6225 | – | 788.69
[2], 291.15 K, x1 = 0.6795 | – | 803.74
[2], 291.15 K, x1 = 0.7429 | – | 821.35
[2], 291.15 K, x1 = 0.8048 | – | 839.41
[2], 291.15 K, x1 = 0.898 | – | 868.3
[2], 291.15 K, x1 = 0.9604 | – | 888.98
[2], 291.15 K, x1 = 0.9833 | – | 896.93
[2], 291.15 K, x1 = 1 | – | 902.88
[2], 298.15 K, x1 = 0.0704 | – | 666.2
[2], 298.15 K, x1 = 0.127 | – | 675.7
[2], 298.15 K, x1 = 0.193 | – | 687.4
[2], 298.15 K, x1 = 0.2383 | – | 695.9
[2], 298.15 K, x1 = 0.2909 | – | 706.1
[2], 298.15 K, x1 = 0.3466 | – | 717.4
[2], 298.15 K, x1 = 0.444 | – | 738.3
[2], 298.15 K, x1 = 0.4935 | – | 749.5
[2], 298.15 K, x1 = 0.5355 | – | 759.4
[2], 298.15 K, x1 = 0.5869 | – | 772
[2], 298.15 K, x1 = 0.6255 | – | 781.8
[2], 298.15 K, x1 = 0.7012 | – | 801.9
[2], 298.15 K, x1 = 0.7532 | – | 816.4
[2], 298.15 K, x1 = 0.8292 | – | 838.8
[2], 298.15 K, x1 = 0.8612 | – | 848.7
[2], 298.15 K, x1 = 0.9233 | – | 868.5
[2], 298.15 K, x1 = 0.9469 | – | 876.3
[2], 298.15 K, x1 = 1 | – | 894.4
[2], 318.15 K, x1 = 0.0336 | – | 641.5
[2], 318.15 K, x1 = 0.0764 | – | 648.1
[2], 318.15 K, x1 = 0.1448 | – | 659.3
[2], 318.15 K, x1 = 0.2606 | – | 679.9
[2], 318.15 K, x1 = 0.276 | – | 682.8
[2], 318.15 K, x1 = 0.3316 | – | 693.5
[2], 318.15 K, x1 = 0.3976 | – | 707
[2], 318.15 K, x1 = 0.4495 | – | 718.1
[2], 318.15 K, x1 = 0.5054 | – | 730.6
[2], 318.15 K, x1 = 0.5551 | – | 742.2
[2], 318.15 K, x1 = 0.6085 | – | 755.1
[2], 318.15 K, x1 = 0.7048 | – | 779.9
[2], 318.15 K, x1 = 0.7523 | – | 792.9
[2], 318.15 K, x1 = 0.7984 | – | 806
[2], 318.15 K, x1 = 0.8419 | – | 818.8
[2], 318.15 K, x1 = 0.8854 | – | 832.2
[2], 318.15 K, x1 = 0.9305 | – | 846.4
[2], 318.15 K, x1 = 1 | – | 869.6
[2], 328.15 K, x1 = 0.0433 | – | 633.2
[2], 328.15 K, x1 = 0.0847 | – | 639.6
[2], 328.15 K, x1 = 0.1691 | – | 653.4
[2], 328.15 K, x1 = 0.2349 | – | 664.88
[2], 328.15 K, x1 = 0.307 | – | 678
[2], 328.15 K, x1 = 0.3708 | – | 690.6
[2], 328.15 K, x1 = 0.4318 | – | 703.25
[2], 328.15 K, x1 = 0.4918 | – | 716.3
[2], 328.15 K, x1 = 0.5567 | – | 731.2
[2], 328.15 K, x1 = 0.6075 | – | 743.4
[2], 328.15 K, x1 = 0.6523 | – | 754.6
[2], 328.15 K, x1 = 0.7238 | – | 773.4
[2], 328.15 K, x1 = 0.7577 | – | 782.7
[2], 328.15 K, x1 = 0.8221 | – | 800.9
[2], 328.15 K, x1 = 0.8723 | – | 815.8
[2], 328.15 K, x1 = 0.9135 | – | 828.6
[2], 328.15 K, x1 = 0.9832 | – | 851.3
[2], 328.15 K, x1 = 1 | – | 857.17
